Assay results taken from patent US20110117081A1, “FUNCTIONALIZED PYRROLIDINES AND USE THEREOF AS IAP INHIBITORS” (priority 2008, published 2011).

Columns and labels:
[1] = test system: Colorectal carcinoma HCT116 cells; test: HCT116 + ETR1 cell viability assay (MTT); format: cell-based; conditions: with ETR1 (40 ng/ml), 72 hrs
Method: Colorectal carcinoma HCT116 cells (ATCC# CCL-247) were cultured as monolayers in 96 well plates at a density of 2000 cells per well in 100 ul of McCoy's 5a medium (HyClone) supplemented with 2.2 g/L sodium bicarbonate (Gibco), 10% FBS (HyClone) and 1% penecillin/streptomycin (HyClone) for 24 hours. Triplicate wells of cells were treated for 72 hrs at 37° C. (5% CO2) with 50 ul of HGS agonistic Trail receptor antibody, ETR1 (40 ng/ml) in combination with 50 ul of diluted compound (0.01 to 10000 nM). Metabolic viability of remaining cells was assessed by MTT assay.
(§1) The percentage viability of compound-treated cells was expressed as a fraction of the absorbance/luminescence signal obtained from non-treated cells. EC50 values (corresponding to 50% cell survival in the presence of compound as compared to untreated controls) were calculated from MTT survival curves (HCT116 and SKOV3) using BioAssay software (CambridgeSoft) and from Cell Titer-Glo survival curves (synovioycte and Jurkat cells) using GraphPad Prism (Graph Pad Software Inc.). In the below chart, EC50 values are summarized as follows: a=EC50 of less than 10 nM; b=EC50 of 10-100 nM; and c=EC50 of greater than 100 nM.

[2] = test system: Rheumatoid arthritis human fibroblast-like synoviocytes (HFLS-RA); test: Human synoviocytes + Fas antibody cell viability assay (Cell Titer-Glo); format: cell-based; conditions: with anti-human CD95 (Fas) antibody (300 ng/ml), 72 hrs, read-out: EC50 synoviocyctes + FAS
Method: Rheumatoid arthritis human fibroblast-like synoviocytes (HFLS-RA, Cell Applications Inc.) were seeded in 96-well plates at 3000 cells per well in 100 ul of complete synoviocyte growth medium (Cell Applications Inc.) one day prior to treatment. Triplicate wells of cells were treated by the addition of 50 ul of diluted compound (0.01 to 100 nM) in combination with 50 ul of anti-human CD95 (Fas) antibody (300 ng/ml; clone CH-11, Beckman Coulter/Immunotech) and incubated at 37° C. (5% CO2) for 72 hrs. Cell viability was measured by Cell Titer-Glo Luminescent Assay (Promega). Briefly, 100 ul of media was removed from wells and an equal volume of Cell Titer-Glo Reagent was added to the cells. The plates were mixed for 2 minutes on an orbital shaker and after a 10-minute incubation period at room temperature, the emitted luminescence was detected using a Tecan Infinite F200 spectrophotometer.
as §1

H460 xenograft = test: Tumor suppressive effect in combination with Taxotere, H460 xenograft model; format: in vivo; conditions: 1 mg/kg IV, 5 on/2off; with Taxotere 30 mg/kg IP; after 3 weeks of treatment; CD-1 nude mice
Method: Tumor Suppressive Effect of Compound in Combination with Taxotere using an H460 Xenograft Model
(§2) Female, CD-1, nude mice received 1×10^6 H460 cells (in 100 uL of serum-free media) subcutaneously at the right flank. When average tumor size reached ˜100 mm^3 groups were formed using a balanced design based on tumor size, and treatment commenced. Tumor bearing mice were treated with either vehicle (5% D5W; 5 mL/kg, IV) or compound (1 mg/kg, IV) using a 5 on/2off treatment schedule. Taxotere (30 mg/kg, IP) was given twice, one week apart commencing one day after IAP inhibitory compounds.

[3] = test system: Ovarian adenocarcinoma SKOV3 cells; test: SKOV3 cell viability assay (MTT); format: cell-based; conditions: Homo sapiens, SK-OV-3, 72 hours
Method: Ovarian adenocarcinoma SKOV3 cells (ATCC# HTB-77) were cultured as monolayers in McCoy's 5a medium (HyClone) supplemented with 2.2 g/L sodium bicarbonate (Gibco), 10% FBS (HyClone) and 1% penicillin/streptomycin (HyClone). Cells were seeded in tissue culture-treated 96 well plates at 5000 cells/well in 150 ul of media. After 24 hours, triplicate wells of cells were treated with various concentrations of compound (0.01 to 10000 nM) diluted in 50 ul of culture media. Cells were incubated at 37° C. (5% CO2) in the presence of compound for 72 hours. Metabolic viability of remaining cells was assessed by MTT (thiazolyl blue tetrazolium bromide, Sigma) assay. 20 ul of MTT reagent (10 mg/ml) was added per well and plates were incubated for 4 hours at 37° C. (5% CO2). The supernatant was then removed from the plate. The converted MTT product was solubilized with 100 uL of isopropanol and the absorbance was read at 570 nm using a Tecan spectrophotometer.
as §1

HCT-116 xenograft = test: Tumor suppressive effect in combination with ETR1, HCT-116 xenograft model; format: in vivo; conditions: 1 mg/kg IV, 5 on/2off; with Mapatumamab 10 mg/kg IP twice weekly; after 3 weeks of treatment; CD-1 nude mice
Method: Tumor Suppressive Effect of Compound in Combination with ETR1 using an HCT-116 Xenograft Model
as §2, with “1.5×10^6 HCT-116” for “1×10^6 H460”, “˜150” for “˜100”, “Mapatumamab (10” for “Taxotere (30”, “twice weekly for the duration of the experiment,” for “twice, one week apart”

Row | Structure (SMILES) | EC50 [1] [µM] | EC50 [3] [µM] | EC50 [2] [µM] | tumor growth suppression relative to vehicle treated controls (H460 xenograft) [%] | tumor growth suppression relative to vehicle treated controls (HCT-116 xenograft) [%]
1 | CN[C@@H](C)C(=O)N[C@H](C(=O)N1C[C@@H](NC(=O)c2ccc(C(=O)N[C@H]3C[C@@H](C(=O)N[C@@H]4CCCc5ccccc54)N(C(=O)[C@@H](NC(=O)[C@H](C)NC)C4CCCCC4)C3)cc2)C[C@H]1C(=O)N[C@@H]1CCCc2ccccc21)C1CCCCC1 [Compound 1] | < 0.01 | < 0.01 | < 0.01 | 54 | 59
2 | CN[C@@H](C)C(=O)N[C@H](C(=O)N1C[C@@H](NC(=O)C2CCC(C(=O)N[C@H]3C[C@@H](C(=O)N[C@@H]4CCc5ccccc54)N(C(=O)[C@@H](NC(=O)[C@H](C)NC)C4CCCCC4)C3)CC2)C[C@H]1C(=O)N[C@@H]1CCc2ccccc21)C1CCCCC1 (stereo partly drawn) [Compound 3] | < 0.01 | < 0.01 | < 0.01 | – | –
3 | CN[C@@H](C)C(=O)N[C@H](C(=O)N1C[C@@H](NC(=O)c2ccc(-c3ccc(C(=O)N[C@H]4C[C@@H](C(=O)N[C@@H]5CCc6ccccc65)N(C(=O)[C@@H](NC(=O)[C@H](C)NC)C5CCCCC5)C4)cc3)cc2)C[C@H]1C(=O)N[C@@H]1CCc2ccccc21)C1CCCCC1 [Compound 10] | < 0.01 | < 0.01 | – | – | –
4 | CN[C@@H](C)C(=O)N[C@H](C(=O)N1C[C@@H](NC(=O)C2CCC(C(=O)N[C@H]3C[C@@H](C(=O)NC(c4ccccc4)c4ccccc4)N(C(=O)[C@@H](NC(=O)[C@H](C)NC)C4CCCCC4)C3)CC2)C[C@H]1C(=O)NC(c1ccccc1)c1ccccc1)C1CCCCC1 (stereo partly drawn) [Compound 7] | < 0.01 | < 0.01 | < 0.01 | – | –
5 | CN[C@@H](C)C(=O)N[C@H](C(=O)N1C[C@@H](NC(=O)c2ccc(-c3ccc(C(=O)N[C@H]4C[C@@H](C(=O)NC5c6ccccc6-c6ccccc65)N(C(=O)[C@@H](NC(=O)[C@H](C)NC)C5CCCCC5)C4)cc3)cc2)C[C@H]1C(=O)NC1c2ccccc2-c2ccccc21)C1CCCCC1 [Compound 12] | < 0.01 | 0.01 to 0.1 | – | – | –
6 | CN[C@@H](C)C(=O)N[C@H](C(=O)N1C[C@@H](NC(=O)c2ccc3cc(C(=O)N[C@H]4C[C@@H](C(=O)N[C@@H]5CCCc6ccccc65)N(C(=O)[C@@H](NC(=O)[C@H](C)NC)C5CCCCC5)C4)ccc3c2)C[C@H]1C(=O)N[C@@H]1CCCc2ccccc21)C1CCCCC1 [Compound 19] | < 0.01 | < 0.01 | – | – | –

More lines, main results first:

Row | EC50 [1] [µM] | EC50 [3] [µM] | Structure (SMILES) | EC50 [2] [µM] | tumor growth suppression relative to vehicle treated controls (H460 xenograft) [%] | tumor growth suppression relative to vehicle treated controls (HCT-116 xenograft) [%]
7 | < 0.01 | – | CC[C@H](NC)C(=O)N[C@H](C(=O)N1C[C@@H](NC(=O)c2ccc(C(=O)N[C@H]3C[C@@H](C(=O)N[C@@H]4CCCc5ccccc54)N(C(=O)[C@@H](NC(=O)[C@H](CC)NC)C4CCCCC4)C3)cc2)C[C@H]1C(=O)N[C@@H]1CCCc2ccccc21)C1CCCCC1 [Compound 51] | < 0.01 | – | –
8 | 0.01 to 0.1 | – | CN[C@@H](C)C(=O)N[C@H](C(=O)N1C[C@@H](NC(=O)c2ccc(C(=O)N[C@H]3C[C@@H](C(=O)N4CC[C@@H](c5ccccc5)C4)N(C(=O)[C@@H](NC(=O)[C@H](C)NC)C4CCCCC4)C3)cc2)C[C@H]1C(=O)N1CC[C@@H](c2ccccc2)C1)C1CCCCC1 [Compound 41] | 0.01 to 0.1 | – | –
9 | < 0.01 | < 0.01 | CN[C@@H](C)C(=O)N[C@H](C(=O)N1C[C@@H](NC(=O)C2CCC(C(=O)N[C@H]3C[C@@H](C(=O)N[C@@H]4CCOc5ccccc54)N(C(=O)[C@@H](NC(=O)[C@H](C)NC)C4CCCCC4)C3)CC2)C[C@H]1C(=O)N[C@@H]1CCOc2ccccc21)C1CCCCC1 (stereo partly drawn) [Compound 32] | – | – | –
10 | < 0.01 | < 0.01 | CN[C@@H](C)C(=O)N[C@H](C(=O)N1C[C@@H](NC(=O)c2ccc3cc(C(=O)N[C@H]4C[C@@H](C(=O)NC5c6ccccc6-c6ccccc65)N(C(=O)[C@@H](NC(=O)[C@H](C)NC)C5CCCCC5)C4)ccc3c2)C[C@H]1C(=O)NC1c2ccccc2-c2ccccc21)C1CCCCC1 [Compound 20] | – | – | –
11 | 0.01 to 0.1 | 0.01 to 0.1 | CN[C@@H](C)C(=O)N[C@H](C(=O)N1C[C@@H](NC(=O)c2ccc(C(=O)N[C@H]3C[C@@H](C(=O)N4CCCC[C@@H]4c4ccccc4)N(C(=O)[C@@H](NC(=O)[C@H](C)NC)C4CCCCC4)C3)cc2)CC1C(=O)N1CCCC[C@@H]1c1ccccc1)C1CCCCC1 (stereo partly drawn) [Compound 28] | – | – | –
